According to patent US20240271138A1, “METHODS AND COMPOSITIONS FOR MODULATING STING SIGNALING AND INNATE IMMUNE RESPONSES” (The Broad Institute, Inc., priority 2021, published 2024):

Tests used:
BJ1 fibroblasts = test: Immunoblot of STING signaling in BJ1 fibroblasts stimulated with cGAMP; format: cell-based, human; conditions: cGAMP 2 hours, 0.5 μM MLN7243, FIG. 5D
Experimental: (§1) MLN7243 was added again after medium replacement. Cells were stimulated for the indicated times.
Samples for pull-downs or immunoprecipitations were treated as described in the corresponding paragraphs. For experiments involving seeding of cells in 6 well plates or 24 well plates (293 Ts and hTert-BJ1), one well per condition was harvested, lysed in RIPA buffer (Boston Bioproducts) containing complete, Mini, EDTA-free Protease Inhibitor Cocktail (Millipore Sigma) and PhosSTOP (Millipore Sigma) for 10 minutes on ice. Lysates were cleared by centrifugation at 16000 g for 10 minutes at 4° C. and Laemmli 6×, Sample buffer, SDS, and reducing agents (Boston Bioproducts) were added prior to loading. Samples were run on NuPAGE 4 to 12%, Bis-Tris Gels (Thermo Fisher) and transferred on nitrocellulose membrane with an iBlot2 (Thermo Fisher). Membranes were blocked in 5% non-fat milk in TBS Tween. Antibodies against phospho-proteins were incubated in 5% BSA TBS tween. ECL signal was recorded on a ChemiDoc Biorad Imager. Data was analyzed with ImageLab (Biorad).

STING ubiquitination = test: FLAG-ubiquitin immunoprecipitation of STING in 293T STING-HA / FLAG-ubiquitin cells; format: cell-based, human; conditions: 2′3′-cGAMP, 2 hours; 0.5 μM MLN7243; FIG. 12A
Experimental: 293T cells were transduced with pTRIP-hPGK-Blast-2A-STING-HA and pTRIP-hPGK-Hygro-2A-FLAG-Ubiquitin and selected with […] Blasticidin (Invivogen) and 320 μg/mL Hygromycin (Invivogen) for one week. 1 million cells/well were plated in a 6 well plate the day prior to the stimulation. Cells were then stimulated with 300 μL cGAMP permeabilization buffer containing 1 μg/mL cGAMP for 10 minutes, washed with 3 mL of warm medium, and the medium was replaced. 3 wells per condition were harvested 2 hours post stimulation, washed with PBS and lysed with 550 μL of RIPA buffer for 10 minutes on ice. Lysates were cleared at 16000 g for 10 minutes at 4° C. 10% of the lysate was saved as input. The remaining lysates were incubated with 150 μL Pierce Anti-[…] Magnetic beads (Thermo Fisher) O/N at 4° C. with constant rotation. Beads were washed 3 times with a buffer containing 10 mM Tris-HCl pH7.5 (Thermo Fisher), 2 mM EDTA (Thermo Fisher), 1% Nonidet-P40 Substitute (Roche) and 50 mM NaCl (Thermo Fisher), and 2 times with RIPA buffer. Proteins were eluted by adding 150 μL of non-reducing Laemmli (Boston bioproducts) containing 20 mM DTT (Thermo Fisher) and boiled for 20 minutes. Input was diluted with 2× sample buffer (Sigma).
as §1

CD14+ monocytes = test: Immunoblot of phospho-STING in CD14+ monocytes from healthy donors; format: cell-based, human; conditions: 5 μg/mL 2′3′-cGAMP, 6 hours, MLN7243, FIG. 12K
Source text: FIGS. 12A-12O show involvement of ESCRT components in ubiquitination and degradation of STING. […] One representative blot of n=2 independent experiments. […] One representative plot of n=3 technical replicates. […] Each dot represents one technical replicate. Paired t-test, *** p<0.001. […] One representative plot of n=3 independent experiments with n=2 technical replicates per experiment. […] Each dot represents an individual replicate. One-way ANOVA with Dunnet's multiple comparisons. **** p<0.0001, *** p<0.001. […] FIGS. 12G-12J show immunofluorescence in 293T stably expressing STING-HA after stimulation with cGAMP for 2 hours. […] Dashed boxes represent the cropped regions shown in the right panels. One representative field of n≥5 fields in n=2 independent experiments. Scale bar is 10 μm. […] One representative blot of n=3 independent donors in n=2 independent experiments. […] One representative experiment of n=3 independent experiments with n=2 technical replicates. […] Friedman test with Dunn's multiple comparison test. **** p<0.0001, ** p<0.01, ns: not significant.
CD14+ monocytes were isolated from peripheral adult human blood as previously described 1. […]
Samples for pull-downs or immunoprecipitations were treated as described in the corresponding paragraphs. […] ECL signal was recorded on a ChemiDoc Biorad Imager. Data was analyzed with ImageLab (Biorad).

STING-mNeonGreen = test: STING degradation in 293T STING-mNeonGreen reporter cell line by flow cytometry; conditions: 293T STING-mNG; 4 μg/mL 2′3′-cGAMP(pS)2; 0.5 μM MLN7243; FIGS. 5A-5B
Experimental: MLN7243 (Selleckchem) was used at 0.5 μM in all experiments. All cell lines were pre-treated for one hour before cGAMP stimulation. […] Cells were stimulated with 300 μL cGAMP permeabilization buffer containing 0.5 μg/mL 2′3′-cGAMP for 10 minutes, washed with 3 mL of medium, and medium was then replaced. MLN7243 was added again after medium replacement. Cells were stimulated for the indicated times.
Cells were then washed twice with Cytoperm and resuspended in FACS buffer for flow cytometry. Acquisition was performed on a Cytoflex S or Cytoflex LX (Beckman Coulter). Data was analyzed with FlowJo (BD).

NS(=O)(=O)OC[C@H]1C[C@@H](Nc2ccnc3cc(-c4cccc(SC(F)(F)F)c4)nn23)[C@H](O)[C@@H]1O [MLN7243]
STING degradation (BJ1 fibroblasts): abrogated STING degradation
lipidated LC3B (BJ1 fibroblasts): induced accumulation of lipidated LC3B
phospho-STING signaling (BJ1 fibroblasts): increased phospho-STING signaling
STING ubiquitination (STING ubiquitination): blocked STING ubiquitination
phospho-STING levels (CD14+ monocytes): strong increase in phospho-STING levels
degradation of STING (% STING-mNG positive cells) (STING-mNeonGreen): complete block of degradation of STING
